These are literature values, as cited in patent publication US20250367112A1, “DRUG DELIVERY COMPOSITION FOR PROMOTING TISSUE REGENERATION AND KIT FOR DRUG DELIVERY COMPRISING SAME” (T&R BIOFAB CO., LTD., priority 2023, published 2025).

Each structure is given as a SMILES string. Where a name gives a salt, the structure may show the parent alone. Read-outs that look alike come from different tables or passages of the source.

Consider `CCCN1CCCC[C@H]1C(=O)Nc1c(C)cccc1C` [Ropivacaine HCl], for which the in vivo half-life (epidural injection) was 4.2 ± 1 h and the in vivo half-life (intravenous injection) is 1.8 ± 0.7 h.
